Measurements reported in ChEMBL document CHEMBL2074263, “P-glycoprotein efflux at the blood-brain barrier mediates differences in brain disposition and pharmacodynamics between two structurally related neurokinin-1 receptor antagonists” (J Pharmacol Exp Ther, 2001).

Target: P-glycoprotein 1 and 3 (MDR1a/MDR1b) (Mus musculus, UniProt P21447+P06795)
Assay: TP_TRANSPORTER: increase in brain concentration in mdr1a/1b(-/-) mouse
Type: functional, organism-based
Conditions: in vivo

- Activity: substrate [+]
SMILES: COc1ccc(N(C)S(C)(=O)=O)cc1CN[C@H]1CCCN[C@H]1c1ccccc1
